Data taken from patent US20250206722A1, “SMALL MOLECULE INHIBITORS OF TEA DOMAIN FAMILY MEMBERS” (The Scripps Research Institute, priority 2022, published 2025).

Key:
Format in all cases: cell-based
NCI-H226 cells [1] = test: NCI-H226 proliferation assay (Wuxi AppTec); settings: Homo sapiens, 168 h, 7 days, CellTiter-Glo, top dose 10, 3-fold dilution, 9 doses
Description: […] Proliferation Assay (From Wuxi AppTec CO.):
Day −1: Seeding cells • (1) Equilibrate cell culture medium to 37° C. • (2) Remove and discard the culture medium. • (3) Briefly rinse the cell layer with PBS to remove all traces of serum that contains […]. • (4) Add 2-3 mL of Trypsin-EDTA solution to flask and observe cells under an inverted microscope until cell layer is dispersed. • (5) Add 6-8 mL of growth medium to terminate the digestion of Trypsin/EDTA. • (6) Centrifuge the mixture (Trypsin EDTA and the growth medium) at 1000 rpm for 5 mins. • (7) Discard the supernatant, suspend the cell precipitation with the fresh growth medium, then take 1 mL the cell suspension to count cells with Vi-cell XR cell viability analyzer. • (8) Adjust the cell density to 500 cells/well for 384-well plates. • (9) Add 50 µL/well volume cell suspension to the assay plate. • (10) Add […] media to the control columns. • (11) Incubate the plate at 37° C., 5% CO2 for overnight. Day 0: Compounds treatment • (1) Add cpds to each well by Tecan HP D300E. The top dose is […], 3-fold dilution and 9 doses. DMSO final concentration will be normalized to 0.2%. • (2) Incubate the assay plate at 37° C., 5% CO2 for 7 days. Day 7: Plate read • (1) Equilibrate the assay plate to the room temperature for nearly 30 minutes. • (2) Add […] CellTiter-Glo reagent to each well and shake the plate for 1 min, incubate 10 min and keep them from light. • (3) Detect the plate by EnVision. Data analysis:
Max: Average of the DMSO group Min: Average of medium group.

NCI-H226 cells [2] = test: NCI-H226 proliferation assay (in house); settings: Homo sapiens, 120 h, 5 days, Cell TiterGlo, 20-point 1:2 dilution from 20 μM
Procedure, shortened: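 Cells in RPMI 1640 + 10% FBS, 500 per well, dosed after 24 h with 20-point 1:2 dilutions from 20 μM (final), in triplicate. After 5 days at 37 °C, 5% CO2, viability read by CellTiter-Glo luminescence.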

[3] = tested on: transcriptional activity of TEADs; test: TEAD reporter assay (MCF7 TEAD-LUC reporter cells); settings: Homo sapiens, 24 hours, BrightGlo luminescence
Procedure, shortened: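 MCF7 TEAD-LUC reporter cells were plated at 5,000/well and after 24 h treated with a 20-point 1:2 series from 20 μM final, in triplicate. Luciferase was read by BrightGlo luminescence after 24 h exposure at 37 °C.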

C=CC(=O)N1CCN(c2nccnc2Nc2ccc(C(F)(F)F)c(OC)c2)CC1 [Example 37, 1-(4-(3-((3-methoxy-4-(trifluoromethyl)phenyl)amino)pyrazin-2-yl)piperazin-1-yl)prop-2-en-1-one]
IC50 (NCI-H226 cells [1]): 0.078 µM

C=CC(=O)N1CCN(c2nccnc2Nc2ccc(C#N)cc2)CC1 [Example 38, 4-((3-(4-acryloylpiperazin-1-yl)pyrazin-2-yl)amino)benzonitrile]
IC50 (NCI-H226 cells [1]): 0.42 µM

C=CC(=O)N1CC=C(c2nccnc2Nc2ccc(OC(F)(F)F)nc2)CC1 [Example 57, 1-(4-(3-((6-(trifluoromethoxy)pyridin-3-yl)amino)pyrazin-2-yl)-3,6-dihydropyridin-1(2H)-yl)prop-2-en-1-one]
IC50 (NCI-H226 cells [1]): 0.036 µM

C=C(F)C(=O)N1CC=C(c2nccnc2Nc2ccc(OC(F)(F)F)nc2)CC1 [Example 58, 2-fluoro-1-(4-(3-((6-(trifluoromethoxy)pyridin-3-yl)amino)pyrazin-2-yl)-3,6-dihydropyridin-1(2H)-yl)prop-2-en-1-one]
IC50 (NCI-H226 cells [1]): 0.283 µM

C=CC(=O)N1CC=C(c2nccnc2Nc2cnc(C(F)(F)F)nc2)CC1 [Example 59, 1-(4-(3-((2-(trifluoromethyl)pyrimidin-5-yl)amino)pyrazin-2-yl)-3,6-dihydropyridin-1(2H)-yl)prop-2-en-1-one]
IC50 (NCI-H226 cells [1]): 0.1 µM

C=C(F)C(=O)N1CC=C(c2nccnc2Nc2cnc(C(F)(F)F)nc2)CC1 [Example 60, 2-fluoro-1-(4-(3-((2-(trifluoromethyl)pyrimidin-5-yl)amino)pyrazin-2-yl)-3,6-dihydropyridin-1(2H)-yl)prop-2-en-1-one]
IC50 (NCI-H226 cells [1]): 1.31 µM

C=C(F)C(=O)N1CCC(c2nccnc2Oc2ccc(C(F)(F)F)cn2)CC1 [Example 76, 2-fluoro-1-(4-(3-((5-(trifluoromethyl)pyridin-2-yl)oxy)pyrazin-2-yl)piperidin-1-yl)prop-2-en-1-one]
IC50 (NCI-H226 cells [1]): 0.104 µM
IC50 (NCI-H226 cells [2]): 0.424 µM

C=CC(=O)N1CCC(O)(c2nccnc2Oc2ccc(C(F)(F)F)nc2)CC1 [Example 83, 1-(4-hydroxy-4-(3-((6-(trifluoromethyl)pyridin-3-yl)oxy)pyrazin-2-yl)piperidin-1-yl)prop-2-en-1-one]
IC50 (NCI-H226 cells [1]): 0.263 µM

C=CC(=O)N1CCC(c2nccnc2Oc2cnc(C(F)(F)F)nc2)CC1 [Example 91, 1-(4-(3-((2-(trifluoromethyl)pyrimidin-5-yl)oxy)pyrazin-2-yl)piperidin-1-yl)prop-2-en-1-one]
IC50 (NCI-H226 cells [1]): 0.042 µM
IC50 (NCI-H226 cells [2]): 0.075 µM

C=C(F)C(=O)N1CCC(c2nccnc2Oc2cnc(C(F)(F)F)nc2)CC1 [Example 92, 2-fluoro-1-(4-(3-((2-(trifluoromethyl)pyrimidin-5-yl)oxy)pyrazin-2-yl)piperidin-1-yl)prop-2-en-1-one]
IC50 (NCI-H226 cells [1]): 1.12 µM
IC50 (NCI-H226 cells [2]): 5.64 µM

C=C(F)C(=O)N1CCC(c2nc(C)cnc2Oc2ccc(C(F)(F)F)nc2)CC1 [Example 115, 2-fluoro-1-(4-(6-methyl-3-((6-(trifluoromethyl)pyridin-3-yl)oxy)pyrazin-2-yl)piperidin-1-yl)prop-2-en-1-one]
IC50 (NCI-H226 cells [1]): 0.041 µM
IC50 (NCI-H226 cells [2]): 0.074 µM

C=CC(=O)N1CCN(c2ccnnc2Nc2ccc(C(F)(F)F)cn2)CC1 [Example 120, 1-(4-(3-((5-(trifluoromethyl)pyridin-2-yl)amino)pyridazin-4-yl)piperazin-1-yl)prop-2-en-1-one]
IC50 (NCI-H226 cells [1]): 0.205 µM

C=CC(=O)N1CCN(c2ccnnc2Nc2ccc(C(F)(F)F)nc2)CC1 [Example 121, 1-(4-(3-((6-(trifluoromethyl)pyridin-3-yl)amino)pyridazin-4-yl)piperazin-1-yl)prop-2-en-1-one]
IC50 (NCI-H226 cells [1]): 1.4 µM

C=CC(=O)N1CC=C(c2cccnc2Nc2ccc(OC(F)(F)F)nc2)CC1 [Example 147, 1-(2-((6-(trifluoromethoxy)pyridin-3-yl)amino)-3′,6′-dihydro-[3,4′-bipyridin]-1′(2′H)-yl)prop-2-en-1-one]
IC50 (NCI-H226 cells [1]): 0.149 µM
IC50 [3]: 2.3 nM

C/C=C/C(=O)N1CCN(c2nccnc2Nc2ccc(C(F)(F)F)nc2)CC1 [Example 178, (E)-1-(4-(3-((6-(trifluoromethyl)pyridin-3-yl)amino)pyrazin-2-yl)piperazin-1-yl)but-2-en-1-one]
IC50 (NCI-H226 cells [2]): 0.884 µM
IC50 [3]: 2.7 nM

O=C(C(O)CO)N1CCN(c2nccnc2Nc2ccc(C(F)(F)F)cc2)CC1 (stereo not shown) [Example 180, 2,3-dihydroxy-1-(4-(3-((4-(trifluoromethyl)phenyl)amino)pyrazin-2-yl)piperazin-1-yl)propan-1-one]
IC50 (NCI-H226 cells [2]): > 20 µM
IC50 [3]: > 20000 nM

N#C/C=C\C(=O)N1CCN(c2nccnc2Nc2ccc(C(F)(F)F)cc2)CC1 [Example 182, (Z)-4-oxo-4-(4-(3-((4-(trifluoromethyl)phenyl)amino)pyrazin-2-yl)piperazin-1-yl)but-2-enenitrile]
IC50 (NCI-H226 cells [2]): 0.034 µM
IC50 [3]: 1.2 nM

N#C/C=C/C(=O)N1CCN(c2nccnc2Nc2ccc(C(F)(F)F)nc2)CC1 [Example 183, (E)-4-oxo-4-(4-(3-((6-(trifluoromethyl)pyridin-3-yl)amino)pyrazin-2-yl)piperazin-1-yl)but-2-enenitrile]
IC50 (NCI-H226 cells [2]): 0.422 µM
IC50 [3]: 33.9 nM

N#C/C=C\C(=O)N1CCN(c2nccnc2Nc2ccc(C(F)(F)F)nc2)CC1 [Example 184, (Z)-4-oxo-4-(4-(3-((6-(trifluoromethyl)pyridin-3-yl)amino)pyrazin-2-yl)piperazin-1-yl)but-2-enenitrile]
IC50 (NCI-H226 cells [2]): 1.45 µM
IC50 [3]: 164 nM

CN(C#N)C(=O)N1CCN(c2nccnc2Nc2ccc(C(F)(F)F)cc2)CC1 [Example 185, N-cyano-N-methyl-4-(3-((4-(trifluoromethyl)phenyl)amino)pyrazin-2-yl)piperazine-1-carboxamide]
IC50 (NCI-H226 cells [2]): > 20 µM
IC50 [3]: > 20000 nM

C=C(CO)C(=O)N1CCN(c2nccnc2Nc2ccc(C(F)(F)F)cc2)CC1 [Example 186, 2-(hydroxymethyl)-1-(4-(3-((4-(trifluoromethyl)phenyl)amino)pyrazin-2-yl)piperazin-1-yl)prop-2-en-1-one]
IC50 (NCI-H226 cells [2]): > 20 µM
IC50 [3]: > 20000 nM

C=C(COC(C)=O)C(=O)N1CCN(c2nccnc2Nc2ccc(C(F)(F)F)cc2)CC1 [Example 187, 2-(4-(3-((4-(trifluoromethyl)phenyl)amino)pyrazin-2-yl)piperazine-1-carbonyl)allyl acetate]
IC50 (NCI-H226 cells [2]): 7.41 µM
IC50 [3]: 36600 nM

C=C(CF)C(=O)N1CCN(c2nccnc2Nc2ccc(C(F)(F)F)cc2)CC1 [Example 188, 2-(fluoromethyl)-1-(4-(3-((4-(trifluoromethyl)phenyl)amino)pyrazin-2-yl)piperazin-1-yl)prop-2-en-1-one]
IC50 (NCI-H226 cells [2]): 0.013 µM
IC50 [3]: 2.3 nM

O=C(COC(F)(F)F)N1CCN(c2nccnc2Nc2ccc(C(F)(F)F)cc2)CC1 [Example 190, 2-(trifluoromethoxy)-1-(4-(3-((4-(trifluoromethyl)phenyl)amino)pyrazin-2-yl)piperazin-1-yl)ethan-1-one]
IC50 (NCI-H226 cells [2]): 0.994 µM
IC50 [3]: 12.7 nM

C#CCN(CCOc1nccnc1Nc1ccc(C(F)(F)F)cc1)C(=O)C=C [Example 193, N-(prop-2-yn-1-yl)-N-(2-((3-((4-(trifluoromethyl)phenyl)amino)pyrazin-2-yl)oxy)ethyl)acrylamide]
IC50 (NCI-H226 cells [2]): > 20 µM
IC50 [3]: 203 nM

C=C(F)C(=O)NCC1CN(c2ccc(C(F)(F)F)nc2)c2nccnc2N1 (stereo not shown) [Example 194]
IC50 (NCI-H226 cells [2]): > 20 µM
IC50 [3]: 238 nM
